Results on two compounds are retold here after ChEMBL document CHEMBL5678818, “Discovery of potent SOS1 inhibitors that block RAS activation via disruption of the RAS-SOS1 interaction” (Proc Natl Acad Sci U S A, 2019).

Experiment [1] has as its target Dual specificity tyrosine-phosphorylation-regulated kinase 1A (Homo sapiens) (UniProt Q13627). In words: Inhibition of DYRK1A (unknown origin) assessed as residual activity at 1000 nM by KINOMEscan analysis relative to control.
Experiment [2] addresses T1, Serine/threonine-protein kinase Nek5 (Homo sapiens) (UniProt Q6P3R8).
T1 sequence (whole entry): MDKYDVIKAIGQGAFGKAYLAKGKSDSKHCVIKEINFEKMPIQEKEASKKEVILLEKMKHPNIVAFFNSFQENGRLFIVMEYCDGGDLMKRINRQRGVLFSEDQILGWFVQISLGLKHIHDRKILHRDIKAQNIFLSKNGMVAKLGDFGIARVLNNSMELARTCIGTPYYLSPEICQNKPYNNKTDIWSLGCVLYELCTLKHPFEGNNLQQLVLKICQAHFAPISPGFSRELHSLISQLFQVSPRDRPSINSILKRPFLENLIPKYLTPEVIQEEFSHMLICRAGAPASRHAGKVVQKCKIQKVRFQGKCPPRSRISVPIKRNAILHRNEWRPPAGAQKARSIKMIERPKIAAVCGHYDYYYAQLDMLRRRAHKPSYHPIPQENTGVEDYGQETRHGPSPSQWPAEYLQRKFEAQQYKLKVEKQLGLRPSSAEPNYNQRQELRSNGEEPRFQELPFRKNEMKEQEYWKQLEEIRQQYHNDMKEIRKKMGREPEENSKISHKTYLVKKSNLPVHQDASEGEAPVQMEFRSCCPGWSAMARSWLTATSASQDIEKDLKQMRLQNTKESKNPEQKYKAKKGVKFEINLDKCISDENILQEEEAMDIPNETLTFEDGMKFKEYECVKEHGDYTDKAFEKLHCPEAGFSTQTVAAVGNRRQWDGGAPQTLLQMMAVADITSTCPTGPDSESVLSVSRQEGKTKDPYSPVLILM
The experiment can be described thus: Inhibition of NEK5 (unknown origin) assessed as residual activity at 1000 nM by KINOMEscan analysis relative to control.

Experiment [3] concerns the target Serine/threonine-protein kinase 35 (Homo sapiens) (UniProt Q8TDR2). In words: Inhibition of STK35 (unknown origin) assessed as residual activity at 1000 nM by KINOMEscan analysis relative to control.
Experiment [4] addresses Epithelial discoidin domain-containing receptor 1 (Homo sapiens) (UniProt Q08345). The experiment can be described thus: Inhibition of DDR1 (unknown origin) assessed as residual activity at 1000 nM by KINOMEscan analysis relative to control.
Experiment [5] addresses T2, SNF-related serine/threonine-protein kinase (Homo sapiens) (UniProt Q9NRH2).
T2 sequence (whole entry): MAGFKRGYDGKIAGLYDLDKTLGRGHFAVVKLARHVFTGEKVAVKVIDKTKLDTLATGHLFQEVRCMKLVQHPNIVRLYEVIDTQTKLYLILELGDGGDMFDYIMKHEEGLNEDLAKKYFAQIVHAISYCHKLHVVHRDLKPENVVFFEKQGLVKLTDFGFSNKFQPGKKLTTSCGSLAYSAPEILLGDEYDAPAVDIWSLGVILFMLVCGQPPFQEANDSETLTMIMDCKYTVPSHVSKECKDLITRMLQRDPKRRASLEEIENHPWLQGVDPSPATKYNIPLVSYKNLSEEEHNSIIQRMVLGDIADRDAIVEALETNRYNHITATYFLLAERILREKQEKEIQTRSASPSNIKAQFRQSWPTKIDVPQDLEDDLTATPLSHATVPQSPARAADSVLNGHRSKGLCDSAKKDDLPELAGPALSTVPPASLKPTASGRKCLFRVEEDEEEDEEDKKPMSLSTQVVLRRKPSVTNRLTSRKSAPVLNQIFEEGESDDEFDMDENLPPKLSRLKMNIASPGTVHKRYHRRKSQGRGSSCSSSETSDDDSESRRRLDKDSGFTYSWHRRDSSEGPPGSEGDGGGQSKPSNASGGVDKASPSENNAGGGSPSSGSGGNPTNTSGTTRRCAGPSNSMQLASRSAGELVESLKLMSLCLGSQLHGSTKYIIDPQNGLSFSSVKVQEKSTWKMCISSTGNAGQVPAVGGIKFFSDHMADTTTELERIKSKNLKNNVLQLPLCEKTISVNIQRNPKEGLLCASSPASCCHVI
The experiment can be described thus: Inhibition of SNRK (unknown origin) assessed as residual activity at 1000 nM by KINOMEscan analysis relative to control.

Experiment [6] concerns the target TGF-beta receptor type-2 (Homo sapiens) (UniProt P37173). The experiment can be described thus: Inhibition of TGFBR2 (unknown origin) assessed as residual activity at 1000 nM by KINOMEscan analysis relative to control.
Experiment [7] addresses MAP kinase-activated protein kinase 2 (Homo sapiens) (UniProt P49137). The experiment can be described thus: Inhibition of MAPKAPK2 (unknown origin) assessed as residual activity at 1000 nM by KINOMEscan analysis relative to control.
The target of experiment [8] is T3, Serine/threonine-protein kinase RIO1 (Homo sapiens) (UniProt Q9BRS2).
T3 sequence (whole entry): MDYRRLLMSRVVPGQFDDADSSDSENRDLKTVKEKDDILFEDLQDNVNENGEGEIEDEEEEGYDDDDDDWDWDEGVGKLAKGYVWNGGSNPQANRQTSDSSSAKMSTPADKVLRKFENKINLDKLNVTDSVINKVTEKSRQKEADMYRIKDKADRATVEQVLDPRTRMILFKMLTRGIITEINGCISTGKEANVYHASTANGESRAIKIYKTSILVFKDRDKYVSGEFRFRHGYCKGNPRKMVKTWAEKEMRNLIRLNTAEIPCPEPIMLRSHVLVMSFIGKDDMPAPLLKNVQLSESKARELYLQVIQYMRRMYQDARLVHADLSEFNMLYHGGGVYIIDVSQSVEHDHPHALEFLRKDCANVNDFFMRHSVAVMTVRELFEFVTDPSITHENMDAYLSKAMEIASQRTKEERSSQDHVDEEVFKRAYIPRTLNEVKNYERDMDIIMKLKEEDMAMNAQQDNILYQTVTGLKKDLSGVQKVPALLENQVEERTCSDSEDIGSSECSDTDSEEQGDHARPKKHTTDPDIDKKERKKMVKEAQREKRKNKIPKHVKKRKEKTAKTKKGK
In words: Inhibition of RIOK1 (unknown origin) assessed as residual activity at 1000 nM by KINOMEscan analysis relative to control.

Chain of Serine/threonine-protein kinase 35 (Homo sapiens) (Q8TDR2 whole entry, the tested form may be a part): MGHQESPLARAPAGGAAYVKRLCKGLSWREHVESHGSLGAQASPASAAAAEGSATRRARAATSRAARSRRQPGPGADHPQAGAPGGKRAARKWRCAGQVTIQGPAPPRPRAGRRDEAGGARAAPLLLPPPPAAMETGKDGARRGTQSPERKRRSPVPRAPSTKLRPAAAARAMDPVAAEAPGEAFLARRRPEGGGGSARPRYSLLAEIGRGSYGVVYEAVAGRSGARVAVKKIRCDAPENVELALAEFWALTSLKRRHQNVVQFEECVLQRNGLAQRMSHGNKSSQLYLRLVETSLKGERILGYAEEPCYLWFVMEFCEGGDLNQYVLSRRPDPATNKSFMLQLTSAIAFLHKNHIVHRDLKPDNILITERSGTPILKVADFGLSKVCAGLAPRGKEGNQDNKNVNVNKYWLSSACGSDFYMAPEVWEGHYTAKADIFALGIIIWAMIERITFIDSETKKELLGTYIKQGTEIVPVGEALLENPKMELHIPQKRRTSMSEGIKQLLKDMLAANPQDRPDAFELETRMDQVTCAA
Chain of Epithelial discoidin domain-containing receptor 1 (Homo sapiens) (Q08345 whole entry, the tested form may be a part): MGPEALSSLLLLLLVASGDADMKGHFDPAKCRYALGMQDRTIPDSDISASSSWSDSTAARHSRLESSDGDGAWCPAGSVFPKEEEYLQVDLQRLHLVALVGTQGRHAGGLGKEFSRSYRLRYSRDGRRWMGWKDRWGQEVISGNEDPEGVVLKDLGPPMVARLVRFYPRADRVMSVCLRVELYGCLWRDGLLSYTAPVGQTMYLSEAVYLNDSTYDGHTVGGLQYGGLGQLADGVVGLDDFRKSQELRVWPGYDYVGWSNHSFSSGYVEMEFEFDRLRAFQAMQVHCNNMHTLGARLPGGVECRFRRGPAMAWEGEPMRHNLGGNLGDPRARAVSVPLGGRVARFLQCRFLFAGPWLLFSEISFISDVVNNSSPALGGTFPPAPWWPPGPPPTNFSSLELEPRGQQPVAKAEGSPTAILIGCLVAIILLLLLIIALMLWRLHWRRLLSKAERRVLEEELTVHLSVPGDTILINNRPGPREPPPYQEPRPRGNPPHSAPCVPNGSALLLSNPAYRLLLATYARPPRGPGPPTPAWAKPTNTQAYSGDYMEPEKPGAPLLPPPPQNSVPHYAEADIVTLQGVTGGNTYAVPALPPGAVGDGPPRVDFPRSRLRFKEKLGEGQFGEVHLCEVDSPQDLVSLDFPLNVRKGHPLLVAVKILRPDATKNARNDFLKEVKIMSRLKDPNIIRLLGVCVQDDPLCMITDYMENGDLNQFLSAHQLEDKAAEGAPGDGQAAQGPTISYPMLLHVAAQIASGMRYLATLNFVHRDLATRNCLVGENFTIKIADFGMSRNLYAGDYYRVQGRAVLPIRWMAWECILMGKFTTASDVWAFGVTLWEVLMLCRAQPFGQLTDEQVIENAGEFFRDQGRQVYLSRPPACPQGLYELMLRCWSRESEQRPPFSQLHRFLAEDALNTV
Chain of TGF-beta receptor type-2 (Homo sapiens) (P37173 whole entry): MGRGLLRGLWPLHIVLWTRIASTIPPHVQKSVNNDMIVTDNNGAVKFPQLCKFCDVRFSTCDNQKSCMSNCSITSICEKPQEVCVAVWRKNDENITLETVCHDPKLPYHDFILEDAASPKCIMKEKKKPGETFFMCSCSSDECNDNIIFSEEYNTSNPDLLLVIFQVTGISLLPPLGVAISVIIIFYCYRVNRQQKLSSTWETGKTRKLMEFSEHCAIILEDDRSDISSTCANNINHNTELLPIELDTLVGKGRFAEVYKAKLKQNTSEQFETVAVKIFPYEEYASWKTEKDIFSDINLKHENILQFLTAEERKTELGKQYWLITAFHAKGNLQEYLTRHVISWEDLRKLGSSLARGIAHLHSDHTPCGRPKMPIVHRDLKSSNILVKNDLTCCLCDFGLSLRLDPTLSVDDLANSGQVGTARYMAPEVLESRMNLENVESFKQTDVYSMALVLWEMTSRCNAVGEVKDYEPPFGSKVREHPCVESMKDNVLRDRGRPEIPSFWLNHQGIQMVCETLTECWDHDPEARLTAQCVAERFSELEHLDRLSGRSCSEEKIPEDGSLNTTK
Chain of MAP kinase-activated protein kinase 2 (Homo sapiens) (P49137 whole entry, looked up): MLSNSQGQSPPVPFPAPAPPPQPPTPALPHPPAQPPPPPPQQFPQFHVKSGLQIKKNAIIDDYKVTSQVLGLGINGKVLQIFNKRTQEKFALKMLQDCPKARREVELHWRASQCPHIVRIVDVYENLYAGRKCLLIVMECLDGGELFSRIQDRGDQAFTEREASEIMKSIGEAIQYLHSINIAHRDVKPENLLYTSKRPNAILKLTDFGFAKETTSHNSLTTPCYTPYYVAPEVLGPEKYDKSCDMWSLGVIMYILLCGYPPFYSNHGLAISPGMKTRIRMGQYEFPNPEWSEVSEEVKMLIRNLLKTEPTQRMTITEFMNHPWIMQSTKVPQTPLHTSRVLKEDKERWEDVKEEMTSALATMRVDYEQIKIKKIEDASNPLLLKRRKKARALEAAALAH

For the compound `COc1cc2nc(C)nc(N[C@H](C)c3cccc(-c4cn[nH]c4)c3)c2cc1OC`, the Activity came to 86% in experiment [1]; 90% in experiment [2]; 92% in experiment [3]; 95% in experiment [4]; 95% in experiment [5]; 93% in experiment [6]. Moreover, the Activity in experiment [7] was found to be 99%; in experiment [8], 49%.

Consider `COc1cc2ncnc(N[C@H](C)c3cccc4ccccc34)c2cc1OC`, for which the Activity in experiment [1] worked out at 83%; in experiment [2], 85%; in experiment [3] it was 100%; in experiment [4], 100%; in experiment [5] it was 92%; in experiment [6], 100%. In addition, the Activity came out at 100% in experiment [7] and 82% in experiment [8].
